Data from the supplement of paper PMC10307832.

Experiments:
CX-5461 + Trametinib = compound: Cc1cnc(CNC(=O)c2c(=O)c3ccc(N4CCCN(C)CC4)nc3n3c2sc2ccccc23)cn1 [CX-5461] + CC(=O)Nc1cccc(-n2c(=O)n(C3CC3)c(=O)c3c(Nc4ccc(I)cc4F)n(C)c(=O)c(C)c32)c1 [Trametinib] (partner 0.02 µM); test: relative viability (nuclei count vs DMSO), 5 days (fraction); higher = more cells survive
How it was run: (§1)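 The day after seeding in 1536-well plates, lung cancer cell lines were treated by pin tool with a single drug, or with a fixed anchor-drug dose together with five library-drug doses (not always all listed) in √10 steps. After 5 days, a combined fix-and-stain solution (final 0.05% Triton X-100, 1% formaldehyde, 1 ug/ml Hoechst) was added. Nuclei counted on 4× images gave relative viability as treated counts over vehicle counts, reported as the median of duplicate plates.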

IMD-0354 + Dasatinib = compound: O=C(Nc1cc(C(F)(F)F)cc(C(F)(F)F)c1)c1cc(Cl)ccc1O [IMD-0354] + Cc1nc(Nc2ncc(C(=O)Nc3c(C)cccc3Cl)s2)cc(N2CCN(CCO)CC2)n1 [Dasatinib] (partner 0.075 µM); test: as above
How it was run: as §1

| Cell Line | relative viability (CX-5461 + Trametinib; first compound 0.01 µM) | relative viability (CX-5461 + Trametinib; first compound 0.03162 µM) | relative viability (CX-5461 + Trametinib; first compound 0.1 µM) | relative viability (CX-5461 + Trametinib; first compound 0.3162 µM) | relative viability (CX-5461 + Trametinib; first compound 1 µM) | relative viability (IMD-0354 + Dasatinib; first compound 0.04 µM) | relative viability (IMD-0354 + Dasatinib; first compound 0.1265 µM) | relative viability (IMD-0354 + Dasatinib; first compound 0.4 µM) | relative viability (IMD-0354 + Dasatinib; first compound 1.265 µM) | relative viability (IMD-0354 + Dasatinib; first compound 4 µM) |
| --- | --- | --- | --- | --- | --- | --- | --- | --- | --- | --- |
| HCC-44 | 0.921 | 1.25 | 1.11 | 1.14 | 1.05 |  |  |  |  |  |
| HCC-827 | 0.509 | 0.583 | 0.617 | 0.494 | 0.582 | 0.357 | 0.301 | 0.348 | 0.235 | 0.248 |
| NCI-H1623 |  |  |  |  |  | 0.551 | 0.52 | 0.499 | 0.24 | 0.348 |
| NCI-H2347 | 0.273 | 0.279 | 0.292 | 0.272 | 0.223 | 0.321 | 0.308 | 0.278 | 0.162 | 0.229 |
| PC-14 | 0.718 | 0.821 | 0.391 | 0.76 | 0.151 | 0.334 | 0.186 | 0.406 | 0.0692 | 0.102 |
| NCI-H1651 | 0.824 | 0.791 | 0.87 | 0.79 | 0.778 | 0.515 | 0.363 | 0.26 | 0.0542 | 0.0748 |
| HARA | 0.545 | 0.772 | 0.573 | 0.661 | 0.644 | 0.324 | 0.253 | 0.185 | 0.103 | 0.0678 |
| NCI-H1650 | 0.564 | 0.447 | 0.532 | 0.678 | 0.207 | 0.368 | 0.33 | 0.183 | 0.142 | 0.137 |
| NCI-H1793 | 0.386 | 0.519 | 0.364 | 0.411 | 0.353 | 0.399 | 0.413 | 0.241 | 0.16 | 0.154 |
| SK-LU-1 | 0.503 | 0.439 | 0.49 | 0.506 | 0.345 | 0.173 | 0.188 | 0.154 | 0.139 | 0.134 |
| LU99A | 0.596 | 0.488 | 0.477 | 0.389 | 0.634 | 0.573 | 0.648 | 0.445 | 0.113 | 0.19 |
| NCI-H1355 | 0.456 | 0.496 | 0.462 | 0.414 | 0.435 | 0.761 | 0.718 | 0.574 | 0.198 | 0.294 |
| HCC-78 | 0.76 | 0.82 | 0.88 | 0.753 | 0.71 | 0.429 | 0.466 | 0.294 | 0.275 | 0.232 |
| NCI-H1563 |  |  |  |  |  | 0.482 | 0.462 | 0.422 | 0.367 | 0.211 |
| HCC-15 | 0.419 | 0.31 | 0.383 | 0.376 | 0.34 | 0.613 | 0.571 | 0.375 | 0.094 | 0.164 |
| EKVX | 0.389 | 0.306 | 0.482 |  | 0.265 | 0.32 | 0.505 | 0.445 | 0.409 | 0.272 |
| NCI-H2087 | 0.173 | 0.268 | 0.201 | 0.209 | 0.186 | 0.828 | 0.896 | 0.312 | 0.122 | 0.151 |
| NCI-H1395 | 1.09 | 0.821 | 1.07 | 0.741 | 0.71 | 0.432 | 0.47 | 0.385 | 0.372 | 0.291 |

| Cell Line | relative viability (CX-5461 + Trametinib; first compound 0.01 µM) | relative viability (CX-5461 + Trametinib; first compound 0.03162 µM) | relative viability (CX-5461 + Trametinib; first compound 0.1 µM) | relative viability (CX-5461 + Trametinib; first compound 0.3162 µM) | relative viability (CX-5461 + Trametinib; first compound 1 µM) | relative viability (IMD-0354 + Dasatinib; first compound 0.04 µM) | relative viability (IMD-0354 + Dasatinib; first compound 0.1265 µM) | relative viability (IMD-0354 + Dasatinib; first compound 0.4 µM) | relative viability (IMD-0354 + Dasatinib; first compound 1.265 µM) | relative viability (IMD-0354 + Dasatinib; first compound 4 µM) |
| --- | --- | --- | --- | --- | --- | --- | --- | --- | --- | --- |
| NCI-H1437 | 0.542 | 0.568 | 0.469 | 0.537 | 0.391 | 0.528 | 0.381 | 0.255 | 0.0882 | 0.144 |
| COR-L23 | 0.779 | 0.727 | 0.556 | 0.435 | 0.366 | 0.426 | 0.475 | 0.37 | 0.0763 | 0.201 |
| ABC-1 |  |  |  |  |  | 0.67 | 0.673 | 0.279 | 0.165 | 0.228 |
| SW 900 | 0.664 | 0.84 |  | 0.548 | 0.829 | 0.51 | 0.492 | 0.462 | 0.0924 | 0.18 |
| NCI-H838 | 0.555 | 0.555 | 0.539 | 0.328 | 0.482 | 0.239 | 0.321 | 0.256 | 0.239 | 0.214 |
| NCI-H1648 | 0.47 | 0.514 | 0.488 | 0.534 | 0.509 |  |  |  |  |  |
| A-427 | 0.815 | 0.798 | 0.661 | 0.488 | 0.578 | 0.813 | 0.772 | 0.346 | 0.112 | 0.137 |
| NCI-H1792 | 0.542 | 0.434 | 0.407 | 0.401 | 0.52 | 0.906 | 0.69 | 0.545 | 0.406 | 0.416 |
| LCLC-97TM1 | 0.199 | 0.216 | 0.176 | 0.193 | 0.213 | 0.881 | 0.77 | 0.386 | 0.238 | 0.145 |
| LCLC-103H | 0.629 | 0.687 | 0.626 | 0.674 | 0.663 | 0.42 | 0.487 | 0.311 | 0.232 | 0.201 |
| PC-3 [JPC-3] | 0.822 |  | 0.719 | 0.749 | 0.644 | 1.12 | 0.878 | 0.761 | 0.399 | 0.275 |
| BEN | 0.936 | 0.96 | 1.11 | 1.17 | 1.04 | 0.319 | 0.315 | 0.246 | 0.227 | 0.165 |
| NCI-H1666 | 0.895 | 0.891 | 0.719 | 0.821 | 0.65 | 0.94 | 0.912 | 0.651 | 0.345 | 0.351 |
| LC-2-ad | 0.901 | 0.96 | 0.931 | 0.912 | 0.847 | 0.644 | 0.486 | 0.253 | 0.146 | 0.126 |
| SW 1573 | 0.496 | 0.513 | 0.126 | 0.566 | 0.16 | 0.763 | 0.449 | 0.242 | 0.128 | 0.0881 |
| ChaGo-K-1 | 0.875 | 0.978 | 0.874 | 0.922 | 0.849 | 0.635 | 0.59 | 0.434 | 0.2 | 0.237 |
| COR-L 105 | 0.448 | 0.47 | 0.429 | 0.388 | 0.352 | 0.401 | 0.316 | 0.283 | 0.246 | 0.197 |
